Experimental data as given in patent US4746672A, “Oxides of 1,2,5-thiadiazoles, their use in pharmaceutical compositions” (ICI Americas Inc., priority 1982, dated 1988).
Structures can show the parent of a compound that is named as a salt.

Molecular target: T1, histamine H-2 receptor (Oryctolagus cuniculus, UniProt G1TWL8)
T1 construct: The mixture of glands and cells is collected by centrifugation; from tissue; host or cells: dispersed gastric glands and cells (parietal cells) from gastric mucosa of New Zealand white rabbit
Experiment: aminopyrine test: inhibition of histamine-induced uptake of aminopyrine into the acid space of parietal cells
Format: cell-based, New Zealand white rabbit
Conditions: rabbit gastric mucosa glands/cells; uptake stimulated by histamine 10^-5 M and ICI 63197 5×10^-7 M; read-out: concentration giving 50% inhibition of uptake of aminopyrine
Protocol: The aminopyrine test is carried out as follows:
Gastric mucosa from the New Zealand white rabbit is removed from the underlying muscle and washed in Buffer 1 which contains per liter: NaCl (8.007 g.), KCl (0.201 g.), Na2 HPO4 (0.113 g.), KH2 PO4 (0.204 g.), CaCl2.2H2 O (0.132 g.) MgCl2 (0.101 g.) and glucose (1 g.), adjusted to pH 7.4 with NaOH. The tissue is finely chopped, suspended in Buffer 1 and washed three times with Buffer 1. The tissue is then suspended in a dispersion medium of collagenase (Sigma Chemical Co., Type V; 100 mg.) and bovine serum albumin (Miles Laboratories Ltd., Fraction V; 100 mg.) in Buffer 1 (100 ml.) at 50 ml. per 10 g. net weight of tissue and incubated at 30° C. and pH 7.4 maintained by continuous monitoring, with stirring under an oxygen atmosphere. After 30 minutes the tissue is allowed to settle and the supernatant liquid is removed. Fresh dispersion medium (50 ml. per 10 g. wet weight of tissue) is added and incubation is continued with the tissue being largely dispersed into glands and whole cells after 40-60 minutes. Any remaining large pieces of tissue are removed by filtration through nylon mesh. […] The C^14 aminopyrine retained by the tissue is measured on a scintillation counter and the degree of inhibition of uptake by the test compound is calculated by reference to a control sample. […]

T1 sequence (G1TWL8 1-367): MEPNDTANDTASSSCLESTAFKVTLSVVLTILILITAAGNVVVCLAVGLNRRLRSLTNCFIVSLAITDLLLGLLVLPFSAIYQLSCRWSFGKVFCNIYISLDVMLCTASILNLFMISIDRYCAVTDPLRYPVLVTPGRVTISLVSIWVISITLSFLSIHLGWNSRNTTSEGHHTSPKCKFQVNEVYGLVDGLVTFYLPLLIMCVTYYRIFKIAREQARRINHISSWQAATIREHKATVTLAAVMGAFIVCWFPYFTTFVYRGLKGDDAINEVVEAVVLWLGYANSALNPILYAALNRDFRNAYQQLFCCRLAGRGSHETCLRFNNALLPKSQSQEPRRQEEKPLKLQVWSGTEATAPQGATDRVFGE

IC50: < 3 µM
Compound: NC(=NCC(F)(F)F)Nc1nc(CSCCNc2n[s+]([O-])nc2N)cs1 (stereo not shown) [Example 1, 3-amino-4-[2-(2-[2,2,2-trifluoroethyl]guanidino)thiazol-4-ylmethylthio]ethylamino-1,2,5-thiadiazole 1-oxide maleate]
